Experimental findings from patent US12109176B1, “Effect of glycerol on biofilm forming bacteria and fungi that changes the microbes sensitivity to pro and anti-biofilm non-toxic, non-bonded plasma amino acids and amino acid derivatives” (priority 2023, dated 2024) are described below.

SMILES strings stand for the structures. Entries after “also recorded” stand apart in the source; their conditions may differ.

In data set [1] the test system is fungal biofilm (C. albicans). Briefly: Fungal biofilm disruption assay. The format is cell-based, Candida albicans.
Data set [2] deals with bacterial and fungal biofilm. Briefly: In vitro testing on bacterial and fungal biofilm (assay not told apart). The format is cell-based. Particulars: for effect on bacterial and fungal biofilm (in words): in vitro testing; for concentration of maximum (ideal) antibiofilm effect: tested on its own, without glycerol. On the procedure:
(§1) Two types of biofilm assays were performed: an inhibition assay and a disruption assay. The inhibition assay assesses the compound's ability to prevent biofilm development, while the disruption assay assesses the compound's ability to break up an existing mature biofilm.
(§2) All bacterial biofilm solutions were prepared in Tryptic Soy Broth (TSB), supplemented with 1% glucose (henceforth referred to as TSB-G). All subsequent procedures were performed in a manner that maintained sterility. A solution of each amino acid or an amino acid derivative to be tested was prepared in weight to volume concentrations ranging from 0.1-5.0%. Amino acids and amino acid derivatives were also tested in combinations. Compound solutions were homogenized with gentle agitation in the dark (4° C., 24 hours) before use.
(§3) 32 Amino acids and 2 amino acid derivatives of the amino acid serine that occur freely in human blood were tested. […] 31 of the 32 amino acids that were tested were the L-Isomers. Glycine has no stereoisomers. The 2 amino acid derivatives, ethanolamine and phosphoethanolamine were also tested. All biofilm assays were performed using 384-well non-tissue culture-treated polystyrene plates. The fungal species tested are as follows: Candida albicans, Candida guilliermondii, Candida parapsilosis, Candida glabrata, Candida tropicalis and Candida dubliniensis. The bacterial species tested are as follows: Staphylococci (standard wild type and methicillin-resistant strain USA300), Escherichia coli, Pseudomonas aeruginosa and Staphylococcus epidermidis.
(§4) Fungal strains were streaked on Yeast Peptone Dextrose (YPD) agar plates and incubated at 30° C. for 48 hours. A single colony from each strain to be tested was inoculated into YPD broth and grown for 12 hours at 30° C., shaking at 225 rpm. […] The cells were allowed to adhere to the plate for 90 minutes at 37° C. with shaking (350 rpm). […] The plate was further incubated for 24 hours at 37° C. with shaking (350 rpm). Media was carefully aspirated and the biofilm was measured by optical density at 600 nm. […] The cells were allowed to adhere to the plate for 90 minutes at 37° C. with shaking (350 rpm). […] The plate was further incubated for 24 hours at 37° C. with shaking (350 rpm). […] The plate was further incubated for 24 hours at 37° C. with shaking (350 rpm). Media was carefully aspirated, and the biofilm was measured by optical density at 600 nm.
(§5) Bacterial strains were streaked on Blood Agar plates (5% sheep blood in Tryptic Soy Broth) and incubated at 37° C. for 24 hours. A single colony from each strain to be tested was inoculated in a TSB broth and grown for 12 hours, at 37° C. with shaking (225 rpm). For the bacterial biofilm inhibition assays, 1 μL of saturated overnight cell culture was added to either 80 μL of TSB-G, or TSB-G supplemented with the amino acid compound solution to be tested, in a 384-well plate. The cells were allowed to adhere to the plate for 60 minutes at 37° C. without shaking. The media was carefully aspirated and 80 μL of TSB-G, or TSB-G supplemented with the amino acid compound solution was added to the plate. The plate was further incubated for 24 hours at 37° C. without shaking. Media was carefully aspirated and the biofilm was measured by optical density at 600 nm. Eight or twelve replicates were performed for each tested condition and the reported values are normalized to the control (TSB-G media only). For the bacterial biofilm disruption assays, 80 µL of TSB-G was added to the plate, along with 1 μL of overnight cell culture. The cells were allowed to adhere to the plate for 60 minutes at 37° C. with no shaking. The media was carefully aspirated and 80 μL of TSB-G was added to the plate. The plate was further incubated for 24 hours at 37° C. with no shaking. Media was carefully aspirated from the mature biofilm and 80 μL of TSB-G, or TSB-G supplemented with the amino acid to be tested, was gently added to the plate.

The test system of data set [3] is bacterial (S. aureus) biofilm. Put plainly: Bacterial biofilm inhibition assay. The data set is classed as cell-based, Staphylococcus aureus.
Data set [4] has as its system bacterial (S. aureus) biofilm and fungal biofilm (C. albicans). Put plainly: Biofilm disruption assay, bacterial and fungal taken together. The format is cell-based. The method, then: as §1, §2, §3, §4, §5
Data set [5] relates to fungal biofilm (C. albicans). Briefly: Fungal biofilm inhibition assay. The data set is classed as cell-based, Candida albicans. The method, then:
as §1, §2, §3, §4

In data set [6] the test system is bacterial (S. aureus) biofilm. Put plainly: Bacterial biofilm disruption assay. The data set is classed as cell-based, Staphylococcus aureus.
Data set [7] concerns bacterial (S. aureus) biofilm and fungal biofilm (C. albicans). Put plainly: Biofilm inhibition assay, bacterial and fungal taken together. The data set is classed as cell-based. Particulars: for Neutral (square: Inhibition Biofilm Assay): symbol marks the assay.
The subject of the next data set is bacterial biofilm. Put plainly: In vitro testing on bacterial biofilm (inhibition and/or disruption). Particulars: in vitro testing. The format is cell-based.
The test system of a further data set is fungal biofilm. Briefly: In vitro testing on fungal biofilm (inhibition and/or disruption). The format is cell-based. Particulars: in vitro testing. The method, then: as §1, §2, §3, §4
The conditions of data set [8]: in vivo.
Data set [9] can be described thus: Thermal degradation in hot aqueous solution. The format is physicochemical. Particulars: water at about 90 C. to 100 C.
From the text: In order to promote the dissolution of the various amino acids in water, the water is usually maintained at a temperature of about 90 C. to 100 C.
The mark [10] stands for this setting: Table F, in the presence of a sufficient concentration of glycerol.
Where [11] appears, read: Table D, bacterial and fungal biofilm.

For `N[C@@H](CS)C(=O)O` [Cysteine, L-cysteine], the “Reduce or Inhibit F Biofilm (dots: Disruption Biofilm Assay)” value in data set [1] (Table D, 0.1 to 5.0%) was “●● (Two dots [ie. ●●] signifies a major effect (greater than about 50%), on the Disruption Biofilm Assay)”; in [1] (setting [10]), “●● (Two dots [ie. ●●] signifies a major effect (greater than about 50%), on the Disruption Biofilm Assay)”. For the same molecule, in data set [2], the “effect on bacterial and fungal biofilm (in words)” value was “potent antibiofilm effect; also recorded: strong antibiofilm effect; also recorded: activity against both bacterial and fungal biofilm”. In data set [2], the “concentration of maximum (ideal) antibiofilm effect” value is listed as 0.5%. The “Reduce or Inhibit B Biofilm (squares: Inhibition Biofilm Assay)” value in data set [3] (Table D, 0.1 to 5.0%) was “▪▪ (Two squares [ie. ▪▪] signifies a major effect (greater than about 50%), on the Inhibition Biofilm Assay)”; in data set [3] (setting [10]), “▪▪ (Two squares [ie. ▪▪] signifies a major effect (greater than about 50%), on the Inhibition Biofilm Assay)”. Moreover, the “Reduce Both (dots: Disruption Biofilm Assay)” value in data set [4] (setting [11]) was “●● (Two dots [ie. ●●] signifies a major effect (greater than about 50%), on the Disruption Biofilm Assay)”; in data set [4] (setting [10]), “●● (Two dots [ie. ●●] signifies a major effect (greater than about 50%), on the Disruption Biofilm Assay)”. Moreover, the “Reduce or Inhibit F Biofilm (squares: Inhibition Biofilm Assay)” value in data set [5] (Table D, 0.1 to 5.0%) was “▪▪ (Two squares [ie. ▪▪] signifies a major effect (greater than about 50%), on the Inhibition Biofilm Assay)”; in [5] (setting [10]) it was “▪▪ (Two squares [ie. ▪▪] signifies a major effect (greater than about 50%), on the Inhibition Biofilm Assay)”. Further, the “Reduce or Inhibit B Biofilm (dots: Disruption Biofilm Assay)” value was “●● (Two dots [ie. ●●] signifies a major effect (greater than about 50%), on the Disruption Biofilm Assay)” in [6] (Table D, 0.1 to 5.0%) and “●● (Two dots [ie. ●●] signifies a major effect (greater than about 50%), on the Disruption Biofilm Assay)” in data set [6] (setting [10]). In addition, the “Reduce Both (squares: Inhibition Biofilm Assay)” value is “▪▪ (Two squares [ie. ▪▪] signifies a major effect (greater than about 50%), on the Inhibition Biofilm Assay)” in data set [7] (setting [11]) and “▪▪ (Two squares [ie. ▪▪] signifies a major effect (greater than about 50%), on the Inhibition Biofilm Assay)” in data set [7] (setting [10]). The “effect on bacterial biofilm (in words)” value with bacterial biofilm is on record as “antibacterial biofilm effect”. Further, the “effect on fungal biofilm (in words)” value in the data set with fungal biofilm is “antifungal biofilm effects”.

Regarding `OCC(O)CO` [glycerol], the “effect on bacterial and fungal biofilm (in words)” value in [2] was “not found to have antibiofilm effect”. Further, in data set [8], the “toxicity of the glycerol infusion” value is given as “non-toxic to humans”.

As for `NC(=O)CC[C@H](N)C(=O)O` [Glutamine, L-glutamine], in data set [9], the “thermal stability in aqueous solution” value is recorded as “too susceptible to thermal degradation”. Further, the “Neutral (square: Inhibition Biofilm Assay)” value in data set [7] (Table D, Neutral = no effect on the biofilm) was “▪ (Single square [ie. ▪] signifies little effect on the Inhibition Biofilm Assay (from about 10 to less than 30%))”; in [7] (Table E, in the absence of an infusion of glycerol) it was “▪ (Single square [ie. ▪] signifies little effect on the Inhibition Biofilm Assay (from about 10 to less than 30%))”; in data set [7] (setting [10]) it was “▪ (Single square [ie. ▪] signifies little effect on the Inhibition Biofilm Assay (from about 10 to less than 30%))”.

For the molecule `N[C@@H](CCC(=O)O)C(=O)O` [Glutamic Acid, L-glutamic acid], the “Reduce or Inhibit F Biofilm (dots: Disruption Biofilm Assay)” value in data set [1] (Table D, 0.1 to 5.0%) is “●● (Two dots [ie. ●●] signifies a major effect (greater than about 50%), on the Disruption Biofilm Assay)”; in [1] (setting [10]), “●● (Two dots [ie. ●●] signifies a major effect (greater than about 50%), on the Disruption Biofilm Assay)”. The “ideal concentration for antibiofilm effect” value in data set [2] (in the absence of glycerol on in vitro testing) is 0.5 g %. Moreover, the “effect on bacterial and fungal biofilm (in words)” value in data set [2] was “very active against both bacterial and fungal biofilm”; in data set [2] (listed as Glutamic acid), “strong effect on biofilm-forming bacteria and fungi in reducing biofilm formation”. In addition, the “concentration of maximum (ideal) antibiofilm effect” value in data set [2] stood at 0.5%. In addition, the “Reduce or Inhibit B Biofilm (squares: Inhibition Biofilm Assay)” value in data set [3] (Table D, 0.1 to 5.0%) was “▪▪ (Two squares [ie. ▪▪] signifies a major effect (greater than about 50%), on the Inhibition Biofilm Assay)”; in [3] (setting [10]), “▪▪ (Two squares [ie. ▪▪] signifies a major effect (greater than about 50%), on the Inhibition Biofilm Assay)”. Further, the “Reduce Both (dots: Disruption Biofilm Assay)” value in [4] (setting [11]) was “●● (Two dots [ie. ●●] signifies a major effect (greater than about 50%), on the Disruption Biofilm Assay)”; in data set [4] (setting [10]), “●● (Two dots [ie. ●●] signifies a major effect (greater than about 50%), on the Disruption Biofilm Assay)”. In addition, the “Reduce or Inhibit F Biofilm (squares: Inhibition Biofilm Assay)” value in data set [5] (Table D, 0.1 to 5.0%) is “▪▪ (Two squares [ie. ▪▪] signifies a major effect (greater than about 50%), on the Inhibition Biofilm Assay)”; in [5] (setting [10]), “▪▪ (Two squares [ie. ▪▪] signifies a major effect (greater than about 50%), on the Inhibition Biofilm Assay)”. The “Reduce or Inhibit B Biofilm (dots: Disruption Biofilm Assay)” value in [6] (Table D, 0.1 to 5.0%) is “●● (Two dots [ie. ●●] signifies a major effect (greater than about 50%), on the Disruption Biofilm Assay)”; in data set [6] (setting [10]), “●● (Two dots [ie. ●●] signifies a major effect (greater than about 50%), on the Disruption Biofilm Assay)”. Also, the “Reduce Both (squares: Inhibition Biofilm Assay)” value in data set [7] (setting [11]) is “▪▪ (Two squares [ie. ▪▪] signifies a major effect (greater than about 50%), on the Inhibition Biofilm Assay)”; in data set [7] (setting [10]) it was “▪▪ (Two squares [ie. ▪▪] signifies a major effect (greater than about 50%), on the Inhibition Biofilm Assay)”. Further, the “effect on bacterial biofilm (in words)” value with bacterial biofilm is listed as “antibacterial biofilm effect”. Further, the “effect on fungal biofilm (in words)” value in the data set on fungal biofilm is “antifungal biofilm effects”.
